Data from US7304062B2, “Peroxisome proliferator activated receptor alpha agonists” (Eli Lilly and Company, priority 2000, dated 2007).

melting point [°C]	SMILES
94 to 96.5	CCCn1c(CCCc2ccc(OC(C)(C)C(=O)O)cc2)nn(Cc2ccc(C)cc2)c1=O
86.5 to 88.2	CCCn1c(CCCc2ccc(OC)cc2)nn(Cc2ccc(C)cc2)c1=O [Example 118, 5-[3-(4-Methoxyphenyl)-propyl]-2-(4-methylbenzyl)-4-propyl-2,4-dihydro[1,2,4]tria-zol-3-one]
